Read-outs that look alike come from different tables or passages of the source.
Columns and labels:
[1] = target: T1, full length recombinant Pim-1 protein (Homo sapiens, UniProt P11309); assay: Pim-1 enzyme assay (HTRF, phosphorylation of biotinylated-BAD (S112) peptide); type: biochemical; conditions: enzyme assay, Pim-1; read-out: Pim_1_IC50
T1 construct: by full length recombinant Pim-1, Pim-2, or Pim-3 protein; hexahistidine tag followed by a thrombin cleavage site (N); made in house; host or cells: Sf9 (baculovirus) or E. coli (pET28)
T1 sequence (P11309 whole entry): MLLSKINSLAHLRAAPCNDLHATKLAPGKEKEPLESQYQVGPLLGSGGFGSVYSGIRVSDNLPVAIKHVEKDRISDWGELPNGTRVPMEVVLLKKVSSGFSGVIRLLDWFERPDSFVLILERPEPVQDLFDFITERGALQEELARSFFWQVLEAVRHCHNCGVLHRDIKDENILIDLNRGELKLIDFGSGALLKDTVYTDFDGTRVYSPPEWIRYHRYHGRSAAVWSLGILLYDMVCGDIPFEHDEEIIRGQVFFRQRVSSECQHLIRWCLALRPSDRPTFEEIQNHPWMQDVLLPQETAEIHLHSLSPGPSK
Outline: (§1)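 Recombinant full-length Pim-1 or Pim-2 was incubated with biotinylated BAD (S112) peptide in pH 7.0 Hepes buffer with BSA and DTT. After an EDTA stop, phosphopeptide was quantified by time-resolved FRET between a europium antibody and streptavidin-APC, and IC50 values came from 4-parameter logistic curves.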

[2] = target: T2, full length recombinant Pim-2 protein (Homo sapiens, UniProt Q9P1W9); assay: Pim-2 enzyme assay (HTRF, phosphorylation of biotinylated-BAD (S112) peptide); type: biochemical; conditions: enzyme assay, Pim-2; read-out: Pim2_IC50
T2 construct: by full length recombinant Pim-1, Pim-2, or Pim-3 protein; hexahistidine tag followed by a thrombin cleavage site (N); made in house; host or cells: Sf9 (baculovirus) or E. coli (pET28)
T2 sequence (Q9P1W9 whole entry): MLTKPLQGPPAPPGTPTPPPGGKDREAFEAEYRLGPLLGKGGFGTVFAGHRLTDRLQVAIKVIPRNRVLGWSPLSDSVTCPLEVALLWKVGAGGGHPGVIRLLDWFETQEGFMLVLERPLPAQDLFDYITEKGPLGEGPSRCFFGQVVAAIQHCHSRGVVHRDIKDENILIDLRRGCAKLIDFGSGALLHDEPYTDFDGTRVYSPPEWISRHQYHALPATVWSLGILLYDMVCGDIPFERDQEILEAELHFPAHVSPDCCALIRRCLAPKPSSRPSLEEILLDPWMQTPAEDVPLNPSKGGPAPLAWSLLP
Outline: as §1

[3] = target: T3, full length recombinant Pim-3 protein (Homo sapiens, UniProt Q86V86); assay: Pim-3 enzyme assay (HTRF, phosphorylation of biotinylated-BAD (S112) peptide); type: biochemical; conditions: read-out: Pim3 IC50
T3 construct: by full length recombinant Pim-1, Pim-2, or Pim-3 protein; purchased Millipore (UK)
Outline: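 HTRF read-out, streptavidin-APC plus Eu-labelled anti-phospho-BAD (S112) antibody, measures BAD peptide phosphorylation by full-length recombinant Pim-3. Buffer: 60 mM Hepes pH 7.0, 2 mM DTT, 0.05% BSA; EDTA (3 mM) stop. Percent of control per well, IC50 by 4-parameter logistic fit.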

[4] = target: T4, Pim-1 stably transfected into the U2OS human osteogenic sarcoma line (Homo sapiens, UniProt P11309); assay: Pim cell assay, phospho-BAD normalized against total BAD, U2OS stably transfected with Pim-1; type: cell-based; conditions: read-out: Pim1_Cell_IC50
T4 construct: expressed in transfected cells; host or cells: U2OS human osteogenic sarcoma line
T4 sequence (P11309 whole entry): as the sequence (P11309 whole entry) above
Outline: (§2)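 Read-out is phospho-BAD relative to total BAD, by MSD electrochemiluminescence on lysates, expressed as % phosphoprotein = (2×phospho)/(phospho+total)×100. Engineered U2OS lines carrying stably transfected Pim-1 or Pim-2 received 10-point compound dilutions at 0.3% final DMSO after overnight culture at 37 °C; DMSO-only wells served as high control.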

[5] = target: T5, Pim-2 stably transfected into the U2OS human osteogenic sarcoma line (Homo sapiens, UniProt Q9P1W9); assay: Pim cell assay, phospho-BAD normalized against total BAD, U2OS stably transfected with Pim-2; type: cell-based; conditions: read-out: Pim2_Cell_IC50; note: high dose 31.6 µM
T5 construct: expressed in transfected cells; host or cells: U2OS human osteogenic sarcoma line
T5 sequence (Q9P1W9 whole entry): as the sequence (Q9P1W9 whole entry) above
Outline: as §2

[6] = U2OS cells stably transfected with Pim-1, phospho-BAD, high dose […]
[7] = U2OS cells stably transfected with Pim-2, phospho-BAD, high dose […]

Row | Compound | IC50 [1] [nM] | IC50 [2] [nM] | IC50 [3] [nM] | IC50 [4, 6] [nM] | IC50 [5, 7] [nM] | IC50 [4] [nM] | IC50 [5] [nM]
1 | Fc1cccc(Cl)c1-c1ccc2[nH]cc(-c3cncc(O[C@@H]4CCCNC4)n3)c2c1 [Example 26, (R)-5-(2-chloro-6-fluorophenyl)-3-(6-(piperidin-3-yloxy)pyrazin-2-yl)-1H-indole bis(2,2,2-trifluoroacetate)] | 4 | 23 | 6 | 514 | 3690 | – | –
2 | NC1CCN(c2cncc(-c3c[nH]c4ccc(-c5c(F)cccc5Cl)cc34)n2)CC1 [Example 27, 1-(6-(5-(2-chloro-6-fluorophenyl)-1H-indol-3-yl)pyrazin-2-yl)piperidin-4-amine bis(2,2,2-trifluoroacetate)] | 10 | 48 | 9 | 780 | 27200 | – | –
3 | CC(C)Oc1cncc(-c2ccc3[nH]cc(-c4ccnc(N)c4)c3c2)n1 [Example 28, 4-(5-(6-(1-methylethoxy)-2-pyrazinyl)-1H-indol-3-yl)-2-pyridinamine] | 32 | 271 | 12 | – | – | 1400 | 11300
4 | COc1cncc(-c2ccc3[nH]nc(-c4cnc(N5CCC(N)CC5)s4)c3c2)c1 [Example 31, 1-(5-(5-(5-Methoxypyridin-3-yl)-1H-indazol-3-yl)thiazol-2-yl)piperidin-4-amine] | 9 | 326 | 4 | – | – | 600 | 21600
5 | Fc1cccc(F)c1-c1ccc2[nH]cc(-c3cncc(NC4CCCNC4)c3)c2n1 (stereo not shown) [Example 33, 5-(5-(2,6-difluorophenyl)-1H-pyrrolo[3,2-b]pyridin-3-yl)-N-(piperidin-3-yl)pyridin-3-amine] | 26 | 243 | 69 | – | – | 1080 | > 31600
6 | NC1CCN(c2cncc(-c3c[nH]c4ccc(-c5ccccc5F)nc34)c2)CC1 [Example 34, 1-(5-(5-(2-fluorophenyl)-1H-pyrrolo[3,2-b]pyridin-3-yl)pyridin-3-yl)piperidin-4-amine] | 27 | 380 | 29 | – | – | 1010 | > 31600
7 | NC1CCN(c2cncc(-c3n[nH]c4ccc(-c5cc(C(=O)NCc6ccccc6)ccc5F)cc34)n2)CC1 [Example 36, 3-(3-(6-(4-amino-1-piperidinyl)-2-pyrazinyl)-1H-indazol-5-yl)-N-benzyl-4-fluorobenzamide] | 6 | 7 | 2 | 2060 | 6610 | – | –
8 | CC(C)(C)NC(=O)c1ccc(F)c(-c2ccc3[nH]nc(-c4cncc(N5CCC(N)CC5)n4)c3c2)c1 [Example 37, 3-(3-(6-(4-amino-1-piperidinyl)-2-pyrazinyl)-1H-indazol-5-yl)-N-tert-butyl-4-fluorobenzamide] | 13 | 19 | 5 | 573 | 3530 | – | –
9 | CCCCNC(=O)c1ccc(F)c(-c2ccc3[nH]nc(-c4cncc(N5CCC(N)CC5)n4)c3c2)c1 [Example 38, 3-(3-(6-(4-amino-1-piperidinyl)-2-pyrazinyl)-1H-indazol-5-yl)-N-butyl-4-fluorobenzamide] | 7 | 9 | 3 | 1210 | 4740 | – | –
10 | CCCNC(=O)c1ccc(F)c(-c2ccc3[nH]nc(-c4cncc(N5CCC(N)CC5)n4)c3c2)c1 [Example 39, 3-(3-(6-(4-amino-1-piperidinyl)-2-pyrazinyl)-1H-indazol-5-yl)-4-fluoro-N-propylbenzamide] | 7 | 10 | 4 | 1620 | 6630 | – | –
11 | c1cc2[nH]nc(-c3cncc(O[C@@H]4CCCNC4)n3)c2cc1-c1cncc(C2CC2)n1 [Example 118, 5-(6-cyclopropyl-2-pyrazinyl)-3-(6-((3R)-3-piperidinyloxy)-2-pyrazinyl)-1H-indazole] | – | 24 | 1 | 41 | 5750 | – | –
12 | COC(=O)c1ccc2[nH]cc(-c3cncc(N4CCC(N)CC4)n3)c2c1 [Example 236, methyl 3-(6-(4-aminopiperidin-1-yl)pyrazin-2-yl)-1H-indole-5-carboxylate] | 5 | 44 | 7 | – | – | – | 5820

Reference: patent US9090593B2, “Bicyclic compounds as Pim inhibitors” (AMGEN INC., priority 2010, dated 2015)
